In the NIST ThermoML archive (doi:10.1021/je5000296):
± gives the expanded uncertainty stated by the source.

Conditions: Liquid, Ebulliometric method (Recirculating still)

SMILES | vapor or sublimation pressure (399.15 K) | vapor or sublimation pressure (390.48 K)
CCCCOC(C)=O [butyl ethanoate] | 101.3 ± 0.91 kPa | –
CCCCO [butan-1-ol] | – | 101.3 ± 0.91 kPa
